This note sets out measurements from ChEMBL document CHEMBL3774354, “Discovery of Selective Histone Deacetylase 6 Inhibitors Using the Quinazoline as the Cap for the Treatment of Cancer” (J Med Chem, 2016).

One data set has as its target Histone deacetylase 1 (Homo sapiens, UniProt Q13547).
Data set [1] has as its target T1, Protein deacetylase HDAC6 (Homo sapiens, UniProt Q9UBN7).
T1 sequence (Q9UBN7 whole entry): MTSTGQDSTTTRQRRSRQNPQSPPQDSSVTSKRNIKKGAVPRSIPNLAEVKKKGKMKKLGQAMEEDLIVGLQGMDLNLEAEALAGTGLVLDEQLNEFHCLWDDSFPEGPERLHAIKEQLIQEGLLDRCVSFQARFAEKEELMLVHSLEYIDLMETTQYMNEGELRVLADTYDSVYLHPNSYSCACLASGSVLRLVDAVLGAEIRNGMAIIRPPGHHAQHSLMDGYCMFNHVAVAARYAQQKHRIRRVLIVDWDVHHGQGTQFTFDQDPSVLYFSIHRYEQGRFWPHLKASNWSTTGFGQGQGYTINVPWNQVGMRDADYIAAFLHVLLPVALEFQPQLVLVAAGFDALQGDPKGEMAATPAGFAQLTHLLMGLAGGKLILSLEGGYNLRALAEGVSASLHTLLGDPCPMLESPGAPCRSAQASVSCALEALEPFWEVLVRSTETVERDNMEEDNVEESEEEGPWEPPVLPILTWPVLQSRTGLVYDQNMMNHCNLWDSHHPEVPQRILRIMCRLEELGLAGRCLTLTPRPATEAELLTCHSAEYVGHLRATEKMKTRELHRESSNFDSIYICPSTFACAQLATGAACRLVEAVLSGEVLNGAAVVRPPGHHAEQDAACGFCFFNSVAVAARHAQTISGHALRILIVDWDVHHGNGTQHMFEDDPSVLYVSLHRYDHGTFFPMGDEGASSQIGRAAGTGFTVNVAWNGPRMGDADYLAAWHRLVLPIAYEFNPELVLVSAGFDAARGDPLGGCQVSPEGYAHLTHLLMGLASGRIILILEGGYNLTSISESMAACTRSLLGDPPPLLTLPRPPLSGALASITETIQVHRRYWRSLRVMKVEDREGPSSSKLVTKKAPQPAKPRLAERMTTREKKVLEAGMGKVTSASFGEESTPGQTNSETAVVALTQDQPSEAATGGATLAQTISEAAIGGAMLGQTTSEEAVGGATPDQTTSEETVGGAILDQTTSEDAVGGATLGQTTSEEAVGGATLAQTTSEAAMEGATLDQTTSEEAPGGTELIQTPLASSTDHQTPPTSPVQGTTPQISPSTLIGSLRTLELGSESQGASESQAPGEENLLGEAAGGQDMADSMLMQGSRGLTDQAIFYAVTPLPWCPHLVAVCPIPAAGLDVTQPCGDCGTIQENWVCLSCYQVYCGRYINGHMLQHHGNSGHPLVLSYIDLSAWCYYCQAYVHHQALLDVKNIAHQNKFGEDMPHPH
Description: Inhibition of human recombinant HDAC6 using AMC labeled AC-peptide as substrate incubated for 1 hr by fluorescence analysis

The next data set deals with T2, Histone deacetylase 8 (Homo sapiens, UniProt Q9BY41).
T2 sequence (Q9BY41 whole entry): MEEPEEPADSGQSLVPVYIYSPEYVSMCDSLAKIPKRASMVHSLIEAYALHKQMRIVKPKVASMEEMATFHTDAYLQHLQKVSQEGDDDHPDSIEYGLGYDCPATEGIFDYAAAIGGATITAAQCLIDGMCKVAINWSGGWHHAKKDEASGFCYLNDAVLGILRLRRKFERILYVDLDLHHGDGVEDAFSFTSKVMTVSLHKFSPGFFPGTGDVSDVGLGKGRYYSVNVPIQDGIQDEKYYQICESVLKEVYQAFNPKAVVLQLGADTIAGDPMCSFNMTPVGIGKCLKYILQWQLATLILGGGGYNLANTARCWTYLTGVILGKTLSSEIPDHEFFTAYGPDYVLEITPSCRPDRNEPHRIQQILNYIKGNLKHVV

Data set [2] concerns the target T1, Protein deacetylase HDAC6. Briefly: Inhibition of HDAC6 in human HeLa cells assessed as induction of tubulin acetylation incubated for 6 hrs by cytoblot assay. The data set is classed as cell-based.
In data set [3] the test system is HeLa. Description: Induction of histone H3 acetylation in human HeLa cells incubated for 6 hrs by cytoblot assay. The format is functional, cell-based.
The subject of the next data set is A-375. Briefly: Antiproliferative activity against human A375 cells after 72 hrs by MTT assay. The data set is classed as functional, cell-based. To be noted: A-375, 72 h. In general terms: Formazan colour is commonly taken as a measure of viable cells.
Data set [4] has as its system HeLa. Briefly: Antiproliferative activity against human HeLa cells after 72 hrs by MTT assay. The format is functional, cell-based.
Data set [5] has as its system Mus musculus. Briefly: Toxicity in NOD/SCID mouse xenografted with human MV4-11 cells assessed as death at 50 mg/kg, ip q2d for 12 days. The data set is classed as organism-based. To be noted: in vivo, 288 h. Background: A xenograft is tissue or cells of one species grown in another, often human tumour cells in immunodeficient mice.
In data set [6] the test system is Mus musculus. Briefly: Toxicity in Balb/c nude mouse xenografted with human HCT116 cells assessed as death at 50 mg/kg, ip q2d for 9 days. The format is organism-based, HCT-116. The conditions noted are these: in vivo, 216 h.
In data set [7] the test system is Mus musculus. Description: Toxicity in Balb/c nude mouse xenografted with human HCT116 cells assessed as death at 100 mg/kg, po q2d for 8 days. The format is organism-based, HCT-116. The conditions noted are these: in vivo, 192 h.
In another data set the test system is MV4-11. Briefly: Antitumor activity against human MV4-11 cells xenografted in NOD/SCID mouse assessed as tumor mass change at 50 mg/kg, ip q2d for 12 days. The format is functional.
Data set [8] can be described thus: Antitumor activity against human HCT116 cells xenografted in Balb/c nude mouse assessed as tumor mass change at 50 mg/kg, ip q2d for 9 days. The data set is classed as functional, HCT-116.
A short description of data set [9]: Antitumor activity against human HCT116 cells xenografted in Balb/c nude mouse assessed as tumor mass change at 100 mg/kg, po q2d for 8 days. The data set is classed as functional, HCT-116.
Data set [10] has as its system Mus musculus. Description: Toxicity in Balb/c nude mouse xenografted with human HCT116 cells assessed as change in body weight at 50 mg/kg, ip q2d for 9 days. The data set is classed as organism-based, HCT-116. To be noted: in vivo, 216 h.
Data set [11] deals with Mus musculus. Briefly: Toxicity in Balb/c nude mouse xenografted with human HCT116 cells assessed as change in body weight at 100 mg/kg, po q2d for 8 days. To be noted: in vivo, 192 h. The data set is classed as organism-based, HCT-116.

Histone deacetylase 1, sequence (Q13547 whole entry): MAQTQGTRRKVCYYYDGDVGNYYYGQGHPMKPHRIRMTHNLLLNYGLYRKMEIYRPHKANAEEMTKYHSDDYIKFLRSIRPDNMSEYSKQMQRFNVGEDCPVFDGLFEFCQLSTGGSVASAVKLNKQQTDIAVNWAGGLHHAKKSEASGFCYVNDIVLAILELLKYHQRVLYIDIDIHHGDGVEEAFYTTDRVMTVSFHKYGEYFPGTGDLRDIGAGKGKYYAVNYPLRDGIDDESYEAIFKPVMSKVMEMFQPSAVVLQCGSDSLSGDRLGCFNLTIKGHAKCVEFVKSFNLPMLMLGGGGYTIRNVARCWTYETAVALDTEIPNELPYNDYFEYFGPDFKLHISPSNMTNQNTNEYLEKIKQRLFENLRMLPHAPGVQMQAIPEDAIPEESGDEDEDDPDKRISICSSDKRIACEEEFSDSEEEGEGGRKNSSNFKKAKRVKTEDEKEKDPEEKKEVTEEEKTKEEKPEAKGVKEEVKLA
Description for Histone deacetylase 1: Inhibition of human recombinant HDAC1 using AMC labeled AC-peptide as substrate incubated for 1 hr by fluorescence analysis
Description for Histone deacetylase 8: Inhibition of human recombinant HDAC8 using AMC labeled AC-peptide as substrate incubated for 1 hr by fluorescence analysis

Regarding `Cc1nc(N(C)c2cccc(OCC(=O)NO)c2)c2ccccc2n1`, the IC50 (against Histone deacetylase 1; in data set [1]; on Histone deacetylase 8) was more than 1000 nM throughout.

Turning to `Cc1nc2c(c(N(C)c3ccc(OCC(=O)NO)cc3)n1)CCC2`, the EC50 in [2] was determined as 50.8 nM; in the data set on HeLa [3], 1770 nM. For the same molecule, the IC50 in the data set with A-375 came out at 2850 nM; with HeLa [4], 2220 nM; against Histone deacetylase 1 it was 264 nM; in [1], 17 nM; against Histone deacetylase 8, 2970 nM.

As for `Cc1nc(N(C)c2ccc(OCC(=O)NO)cc2)c2ccccc2n1`, the EC50 was 26.2 nM in data set [2] and 456 nM in the data set on HeLa [3]. For the same molecule, the IC50 came out at 213 nM in the data set with A-375 and 171 nM in the data set with HeLa [4].

Regarding `COc1ccc(N(C)c2nc(C)nc3ccccc23)cc1OCCCCC(=O)NO`, the IC50 on Histone deacetylase 1 was determined as 253 nM; in data set [1], 111 nM.

`Cc1nc(N(C)c2ccc(OCCCCC(=O)NO)cc2)c2ccccc2n1` came in with an IC50 against Histone deacetylase 1 of 204 nM.

For `Cc1nc2c(c(N(C)c3ccc(OCCCCCC(=O)NO)cc3)n1)CCC2`, the results for the half-inhibitory concentration (IC50) (on Histone deacetylase 1; in data set [1]; at Histone deacetylase 8) were 120 nM, 20 nM and 1000 nM, respectively.

On to `O=C(CCCCCCC(=O)Nc1ccccc1)NO` [VORINOSTAT], for which the Activity entry in the data set with Mus musculus [5] is “Non-toxic”; in the data set on Mus musculus [6], “Non-toxic”; with Mus musculus [7], “Non-toxic”; in the data set with MV4-11 it was 0%; in data set [8] it was 36.6%; in data set [9] it was 59.2%. For the same molecule, the Activity in the data set with Mus musculus [10] was -3%; in the data set with Mus musculus [11] it was -6.1%.

`Cc1nc(N(C)c2cccc(OCCCC(=O)NO)c2)c2ccccc2n1`: the IC50 (against Histone deacetylase 1; in data set [1]; at Histone deacetylase 8) was more than 1000 nM throughout.

As to `Cc1nc2c(c(N(C)c3ccc(OCCCCC(=O)NO)cc3)n1)CCC2`, the half-maximal inhibitory concentration (IC50) on Histone deacetylase 1 worked out at 212 nM; in data set [1], 63 nM; at Histone deacetylase 8, 1990 nM.

Usually IC50 stands for the concentration that gives 50% inhibition. By EC50 is commonly meant the concentration giving half of the maximal effect.
